The assay deals with P388. Description: Cytotoxicity against mouse P388 cells. The class given is functional. Particulars: read-out: ED50 (the source's name).

SMILES strings stand for the structures. Converted amounts (≈) assume the structure as drawn.

Regarding `C/C=C1/C[C@](CC)(CCCC)OO[C@H]1CC(=O)O`, the EC50 turned out to be 5.5 µg/mL (≈ 21.5 µM).

For `CCCCC1(CC)C[C@@H](CC)[C@H](CC(=O)O)OO1` (some centres not stated), the EC50 was 2.6 µg/mL (≈ 10.1 µM).

These data come from ChEMBL document CHEMBL1149032, “Two new cytotoxic peroxide-containing acids from a New Guinea sponge, Callyspongia sp” (1994).
